Test results reported in US20260232763A1 (Kadmon Corporation, LLC, priority 2023, published 2026).
Read-outs that look alike come from different tables or passages of the source.

What was measured:
[1] = Example 3 Part 2 (Regimen B) dabigatran etexilate + belumosudil plasma PK; type: in vivo, human; conditions: for half-life: read-out: T1/2, geometric mean (converted)
Procedure: The ratio was defined as test/reference. In addition, the intraparticipant variability were also presented. […] No formal interim analyses were performed for this study.

pregnant rabbits = conditions: cited from earlier work
[2] = dosage range of 200 and 400 mg; cited from earlier work
[3] = healthy subjects, cited from earlier work
[4] = tested on: human […]1-acid glycoprotein; conditions: in vitro; cited from earlier work
[5] = healthy subjects, cited from earlier work; remark: listed apart in the source
P-gp = P-gp (Homo sapiens, UniProt P08183); conditions: in vitro, cited from earlier work
P-gp, sequence (P08183 whole entry): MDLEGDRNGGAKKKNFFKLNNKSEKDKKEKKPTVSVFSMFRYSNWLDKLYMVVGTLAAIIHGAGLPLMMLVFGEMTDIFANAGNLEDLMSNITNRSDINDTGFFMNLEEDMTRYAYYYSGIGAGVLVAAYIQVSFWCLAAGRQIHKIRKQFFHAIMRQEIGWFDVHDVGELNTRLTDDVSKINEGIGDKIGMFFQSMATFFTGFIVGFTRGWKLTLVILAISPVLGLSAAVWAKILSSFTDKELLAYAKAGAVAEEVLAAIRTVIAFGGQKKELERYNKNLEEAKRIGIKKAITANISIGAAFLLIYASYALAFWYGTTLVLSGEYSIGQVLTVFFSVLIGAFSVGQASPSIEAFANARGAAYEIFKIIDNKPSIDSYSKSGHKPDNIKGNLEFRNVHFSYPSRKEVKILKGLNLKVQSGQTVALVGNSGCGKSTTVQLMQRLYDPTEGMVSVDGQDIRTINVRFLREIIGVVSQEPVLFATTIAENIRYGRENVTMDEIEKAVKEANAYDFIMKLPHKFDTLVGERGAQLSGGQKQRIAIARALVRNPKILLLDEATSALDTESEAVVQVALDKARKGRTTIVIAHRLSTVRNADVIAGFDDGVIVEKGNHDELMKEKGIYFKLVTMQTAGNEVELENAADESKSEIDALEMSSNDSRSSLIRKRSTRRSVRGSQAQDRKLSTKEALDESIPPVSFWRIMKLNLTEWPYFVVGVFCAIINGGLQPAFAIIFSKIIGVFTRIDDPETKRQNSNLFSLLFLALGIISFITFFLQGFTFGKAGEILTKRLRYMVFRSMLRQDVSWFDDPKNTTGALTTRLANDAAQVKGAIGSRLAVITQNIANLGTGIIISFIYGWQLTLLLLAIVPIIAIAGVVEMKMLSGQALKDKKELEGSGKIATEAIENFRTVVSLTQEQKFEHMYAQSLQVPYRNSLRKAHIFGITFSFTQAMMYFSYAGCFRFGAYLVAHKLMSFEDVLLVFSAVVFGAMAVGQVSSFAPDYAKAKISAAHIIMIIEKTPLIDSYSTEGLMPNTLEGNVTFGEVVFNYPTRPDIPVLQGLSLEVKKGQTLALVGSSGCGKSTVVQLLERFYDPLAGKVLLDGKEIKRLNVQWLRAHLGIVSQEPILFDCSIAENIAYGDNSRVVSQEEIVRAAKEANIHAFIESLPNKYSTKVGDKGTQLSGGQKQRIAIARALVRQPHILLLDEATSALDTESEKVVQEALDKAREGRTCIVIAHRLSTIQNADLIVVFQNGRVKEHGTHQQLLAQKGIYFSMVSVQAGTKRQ

OATP1B1 = target: T1, OATP1B1 (Homo sapiens, UniProt Q9Y6L6); conditions: in vitro, at clinically relevant concentrations; cited from earlier work
T1 sequence (Q9Y6L6 1-691): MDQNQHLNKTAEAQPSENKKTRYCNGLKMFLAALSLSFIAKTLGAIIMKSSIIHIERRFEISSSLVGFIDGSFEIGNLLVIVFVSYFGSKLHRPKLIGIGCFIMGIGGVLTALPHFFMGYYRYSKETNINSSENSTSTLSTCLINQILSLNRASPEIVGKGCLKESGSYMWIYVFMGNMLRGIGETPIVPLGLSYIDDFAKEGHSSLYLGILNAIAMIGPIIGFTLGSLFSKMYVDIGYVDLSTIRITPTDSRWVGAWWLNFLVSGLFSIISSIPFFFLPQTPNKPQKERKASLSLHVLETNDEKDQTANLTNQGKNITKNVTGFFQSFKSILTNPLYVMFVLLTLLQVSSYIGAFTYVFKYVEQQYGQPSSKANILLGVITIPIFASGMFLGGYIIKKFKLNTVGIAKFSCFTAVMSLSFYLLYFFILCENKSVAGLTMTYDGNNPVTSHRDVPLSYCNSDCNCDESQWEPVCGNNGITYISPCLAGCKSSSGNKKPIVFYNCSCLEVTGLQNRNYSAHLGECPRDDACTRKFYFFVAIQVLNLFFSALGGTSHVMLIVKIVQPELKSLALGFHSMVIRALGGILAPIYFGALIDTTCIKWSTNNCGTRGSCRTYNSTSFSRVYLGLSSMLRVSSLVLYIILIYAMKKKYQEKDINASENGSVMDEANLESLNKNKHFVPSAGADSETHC

UGT1A9 = target: T2, UGT1A9 (Homo sapiens, UniProt O60656); conditions: in vitro; cited from earlier work
T2 sequence (O60656 26-530): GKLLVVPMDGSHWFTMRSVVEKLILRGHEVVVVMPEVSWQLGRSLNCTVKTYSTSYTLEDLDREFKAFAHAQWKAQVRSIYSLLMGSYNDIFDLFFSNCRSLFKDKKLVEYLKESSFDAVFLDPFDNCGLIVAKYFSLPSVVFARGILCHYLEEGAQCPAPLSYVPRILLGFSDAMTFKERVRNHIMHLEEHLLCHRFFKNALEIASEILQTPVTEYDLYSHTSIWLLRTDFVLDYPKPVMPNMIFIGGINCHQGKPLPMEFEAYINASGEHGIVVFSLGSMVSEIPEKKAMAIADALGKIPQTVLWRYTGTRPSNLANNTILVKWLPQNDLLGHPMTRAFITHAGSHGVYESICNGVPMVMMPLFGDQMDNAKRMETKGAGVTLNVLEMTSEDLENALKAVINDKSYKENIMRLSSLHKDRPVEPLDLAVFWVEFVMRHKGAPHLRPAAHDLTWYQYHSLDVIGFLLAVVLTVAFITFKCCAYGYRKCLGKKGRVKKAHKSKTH

rats [6] = conditions: oral; cited from earlier work
dogs = conditions: cited from earlier work
rats [7] = conditions: cited from earlier work
[8] = Part 2, Belumosudil alone (Day 5), 200 mg
[9] = Part 2, Dabigatran etexilate + belumosudil (Day 12), 200 mg QD
[10] = single oral dose of radiolabeled belumosudil
[11] = coadministration of rabeprazole

## CC(C)NC(=O)COc1cccc(-c2nc(Nc3ccc4[nH]ncc4c3)c3ccccc3n2)c1 [belumosudil, 2-{3-[4-(1H-indazol-5-ylamino)-2-quinazolinyl]phenoxy}-N-(propan-2-yl) acetamide]
[1]; [8]
  AUC(0-tau), geometric mean: 8490 ng·h/mL
  Cmax, geometric mean: 1710 ng/mL
  T1/2, geometric mean: 6.199 h
[1]; [9]
  AUC(0-last), geometric mean: 12 000 ng · h/mL
  Cmax, geometric mean: 2180 ng/mL
  T1/2, geometric mean: 10.371 h
[1]; male, human, plasma, oral, 200 mg QD, read-out: AUC(0-tau), geometric mean
  AUC: 11000 ng·h/mL
[1]; male, human, plasma, oral, 200 mg, Part 2, Belumosudil alone (Day 5), 200 mg
  half-life: ~6 h
[1]; male, human, plasma, oral, 200 mg, Part 2, Dabigatran etexilate + belumosudil (Day 12), 200 mg QD
  half-life: ~10 h
[1]; male, human, plasma, oral, 200 mg, read-out: median Tmax
  Tmax: 1.5 to 2 h
52 participants, Grade 1 (mild)
  participants reporting a TEAE: 3.8%
headache
  number of TEAEs judged related to belumosudil: 1 event
Healthy male participants, 200 mg QD
  safety and tolerability when coadministered with raltegravir, dabigatran etexilate, rosuvastatin calcium: safe and well tolerated
In vivo
  serious adverse events or TEAEs leading to withdrawal or death: No serious adverse events
Pregnant rabbits; pregnant rabbits, period of organogenesis
  maternal exposures (AUC) with adverse developmental outcomes, times the human exposure (AUC) at the recommended dose: ≥ 0.07 times
Pregnant rabbits; rabbits, oral
  dose with embryo-fetal effects: ≥ 50 mg/kg/day
  dose with maternal toxicity (body weight loss and mortality): ≥ 125 mg/kg/day
[2]
  Cmax and AUC increase with dose: approximately proportional
[3]; single dose
  AUC increase with high-fat and high-calorie meal compared to fasted state: 2 times
  Cmax increase with high-fat and high-calorie meal compared to fasted state: 2.2 times
[3]; [10]
  radioactivity recovered in feces: 85%
  radioactivity recovered in feces as unchanged: 30%
  radioactivity recovered in urine: less than 5%
[4]
  binding to human […]1-acid glycoprotein: 98.6%
[5]; coadministered with itraconazole
  effect on belumosudil exposure: no clinically meaningful effect
[5]; coadministration of omeprazole
  decrease of AUC: 47%
  decrease of Cmax: 68%
[5]; [11]
  decrease of AUC: 80%
  decrease of Cmax: 87%
[5]; coadministration of rifampin
  decrease of AUC: 72%
  decrease of Cmax: 59%
P-gp; at clinically relevant concentrations
  P-gp inhibition: inhibits
P-gp
  P-gp substrate status: substrate of P-gp
OATP1B1
  OATP1B1 inhibition: inhibits
UGT1A9
  UGT1A9 inhibition: inhibitor
Rats [6]
  dose with abnormal sperm findings and testes/epididymis organ changes in male rats: 275 mg/kg/day
  dose with adverse findings in female rats (increased pre- or post-implantation loss, decreased number of viable embryos): 275 mg/kg/day
  dose with reduced fertility in treated males or females: 275 mg/kg/day
dogs
  dose with spermatozoa degeneration: 35 mg/kg/day
Rats [7]
  dose with decreased follicular development in ovaries: 275 mg/kg/day
